Data taken from a melting point compilation (Tetko et al.; mined from patent text by program, amines drawn as free bases though some values may be those of a salt).

SMILES | melting point [°C]
COc1ccc(S(=O)(=O)C(C)(Cc2ccc(-c3ccccc3)cc2)C(=O)NO)cc1 (stereo unspecified) | 177
CCC(CC)C(c1ccnn1-c1ccccc1)N(C)S(=O)(=O)c1ccc(Cl)cc1 (stereo unspecified) | 86.5 to 89
CC(C)[C@H](NC(=O)c1ccccc1)C(=O)NCC(=O)O | 190 to 191
CN(Cc1cc(C(F)(F)F)cc(C(F)(F)F)c1)C(=O)c1nc(O)ncc1-c1ccccc1 | 218 to 220
Cc1cc(Br)c(C)cc1N | 92 to 93
O=[N+]([O-])c1ccc(Oc2cc(Cl)ncn2)cc1 | 125 to 127
COc1c(N2C[C@H](N)[C@H]3OCC[C@H]32)c(F)cc2c(=O)c(C(=O)O)cn(C3CC3)c12 (relative stereo) | 187 to 189
NC(C=Cc1ccccc1)=NO | 85 to 87
CC1=CC(COC(c2ccccc2)(c2ccccc2)c2ccccc2)O[C@H]1c1coc2c(N)ncnc12 (stereo partly specified) | 128 to 132
CC1(C(=O)c2c[nH]c3ncc(-c4cccc(N5CCN(S(C)(=O)=O)CC5)c4)nc23)CCCCC1 | 230 to 231
Nc1nc(Nc2ccc3c(c2)OCO3)sc1C(=O)c1ccccc1[N+](=O)[O-] | 200 to 202
COc1ccc2c(c1)CCCC2(N)CO (stereo unspecified) | 89 to 95.6
COc1ccccc1-c1n[nH]c2ccccc12 | 99
COc1ccc(S(=O)(=O)C(CCCc2ccccc2)(CCCc2ccccc2)C(=O)O)cc1 | 118 to 120
COc1ccc2c(c1)CCC1C2CCC2(C)C(NCc3cccs3)CCC12 (stereo unspecified) | 85.5 to 85.9
COc1ccc(-c2cn(-c3cccc(OCCn4ccnc4)c3)c3ncnc(N)c23)cc1OCc1ccccc1 | 150
NC(=O)N1CC(Oc2ccc(Br)cc2)C1 | 193 to 194
ON=Cc1ccc2c(c1)Sc1ccccc1C=C2 | 206 to 207
N#Cc1ccc(N2C(=N)C3(CCCC3)NC2=O)cc1C(F)(F)F | 212 to 213
COc1ccc(-c2cc(-c3ccccc3)[nH]c2C(=O)Nc2ccc(C(=O)NO)o2)cc1 | 160 to 162
COc1ccc(-c2ccc(-c3ccc(F)cc3)nc2-c2ccc(O)cc2)cc1 | 143 to 145
Cn1ncc2c3cc(Cl)c(Cl)cc3n(C3OC(CO)C(O)C3O)c21 (stereo unspecified) | 135 to 138

SMILES | melting point [°C]
CCCCCCCCCCCCCCOc1ccc(C(=O)O)s1 | 95 to 96
COC(=O)c1scc(C)c1NC(=S)N1CCN(c2ncnc3cc(OC)c(OC)cc23)CC1 | 113 to 116
O=C(Nc1ccc(F)c(C(F)(F)F)c1)N1COc2cc(OCc3ccccc3)ccc21 | 144 to 146
CC(CS)C(=O)N1CC2CCCCC2C1C(=O)O (stereo unspecified) | 119 to 129
Cc1nnc(-c2ccc3occ(-c4cnn(Cc5ccccc5)c4)c3n2)o1 | 194 to 195
CCc1cccc(-c2nc(C3CCCCC3)n(C)n2)n1 | 79.2
Cc1ccc(C)n1CC(=O)N=C(N)N | 198 to 200
Cc1nc2ccccc2n1C(C)(C)CO | 180 to 181
COc1cc(OCc2ccccn2)ccc1/C=C/c1cc(/C=C/c2c[nH]c3ccccc23)n[nH]1 | 112 to 116
O=C(NCCO[N+](=O)[O-])Oc1ccccc1 | 61 to 62
CC(=O)SC1(C(=O)O)CCCC1 | 120 to 122
O=C1C(=c2[nH]c(=c3[nH]c(=C4C(=O)N(c5ccccc5)C(=O)N(c5ccccc5)C4=O)c4ccccc34)c3ccccc23)C(=O)N(c2ccccc2)C(=O)N1c1ccccc1 | > 300
CN(CC(=O)O)Cc1cc(C(=O)c2cccs2)cc(C(C)(C)C)c1O | 180 to 182
CC1(C)CC(=O)Nc2cc(N)ccc21 | 161 to 163
O=c1cc(N2CCOCC2)oc2c(-c3cccc(O)c3)cccc12 | 203 to 205
CC(C)OC1=CC2=CCC3C4CCC(=O)C4(C)CCC3C2(C)CC1 (stereo unspecified) | 147 to 151
C[C@@H](NC(=O)c1cnn(-c2ccc(C(F)(F)F)cc2)c1N)[C@](O)(Cn1cncn1)c1ccc(F)cc1F | 208 to 210
CC(C)(C)C1=NN(c2ccc(S(=O)(=O)O)cc2)C(c2ccc(Cl)cc2)C1 (stereo unspecified) | 92.5
CN(C)C(=O)c1nc(-c2cccnc2)nc2c1[nH]c(=O)n2-c1ccccc1 | 250 to 252
CC(=O)Oc1ccc(C=CC(=O)N(c2ccccc2)c2ccccc2)cc1[N+](=O)[O-] | 170 to 172
CN(C)C=C1CN=Cc2ccccc2C1=O | 131 to 133
O=C1CC(c2ccccc2OCc2ccccc2)=Nc2ccc(N3CCCC3)cc21 | 293 to 295

SMILES | melting point [°C]
CC(C)(C)c1nc2cc(N3CCSCC3)c([N+](=O)[O-])cc2s1 | 117 to 120
C=CCOc1ccc(C(=O)c2ccccc2)cc1 | 71
O=C(O)/C(=C/c1cnc(CCc2ccccc2)n1Cc1ccc(C(=O)O)cc1)Cc1cccs1 | 214
COc1ccc(C(=O)Nc2ccccc2)cc1NC(=S)Nc1ccc(C(F)(F)F)cc1 | 194 to 196
Cc1cc(/C=C/C(=O)O)c(C)c([N+](=O)[O-])c1 | 228
CN(C)CCNC(=O)c1ccc(-c2ccc3nnn(Cc4ccc5ncccc5c4)c3n2)cc1 | 122 to 125
O=C(c1ccc(-c2ccccc2)cc1Cl)N1CCCC(Cc2nnn[nH]2)c2ccccc21 (stereo unspecified) | 191 to 194
CC1(C)Oc2ccc(C#N)cc2[C@@H](NC2=CC(=O)OC2)[C@@H]1O (relative stereo) | 182
Cc1ncncc1C(=O)Nc1ccc(-n2nc(C(F)(F)F)cc2C2CC2)c(F)c1 | 101 to 103
O=Cc1c[nH]c2ccc(Nc3ncnc4cc(-c5ccccc5)sc34)cc12 | 174 to 175
Cc1cc(C2CCCC2)c(O)c(C2CCCC2)c1 | 78
CCOC(C)OCC(C)C1CCC2C3CC=C4CC(O)CC(O)C4(C)C3CCC12C (stereo unspecified) | 124 to 126
CC(C)(COC(=O)OOC(=O)OCC(C)(C)c1ccccc1)c1ccccc1 | 59 to 60
CC(C)[C@H](NC(=O)N(C)Cc1nc2ccccc2[nH]1)C(=O)N[C@@H](Cc1ccccc1)C[C@H](O)[C@H](Cc1ccccc1)NC(=O)OCc1cccnc1 | 97 to 100
COC(=O)C1(CCCN2CCN(c3ccc(O)cc3)CC2)Sc2cc(OC)ccc2CCC1O (stereo unspecified) | 120 to 124
COc1cn(C(C)(C)C(=O)N(C)C)nc1-c1ccccc1 | 114 to 116
O=[N+]([O-])C=C1CN=C(c2ccccc2F)c2cc(Cl)ccc2N1 | 170 to 172
O=c1nc(-c2ccccc2)c2cc([N+](=O)[O-])ccc2n1Cc1ccccn1 | 175 to 176
O=C(C[C@H](NC(=O)C(F)(F)F)C(=O)O)c1ccc(F)cc1F | 82.4 to 84
CCOC(=O)c1cc2c(n1CCN)CCCC2 | 102 to 104
c1ccc(N(c2ccccc2)c2ccc(-c3ccc(-c4ccnc(CNc5ccc6ccccc6c5)n4)cc3)cc2)cc1 | 204 to 205

Second part, the compound after the results:

melting point [°C] | SMILES
109 to 111 | COC(=O)C=CCC1C(=O)N2C(C(=O)OCc3ccc([N+](=O)[O-])cc3)=CCC12 (stereo unspecified)
180 | Cn1cc(C(O)c2cccc(Cl)c2)cc1C(=O)O (stereo unspecified)
188 | CCOC(=O)c1sc2c(c1C)c(N)c(C(=O)c1ccccc1)n2C(C)=O
59 | CCOC(=O)C(O)c1cc(Br)cn1CCOC(C)=O (stereo unspecified)
180 to 182 | O=C(O)c1cc(OCC(=O)c2ccccc2)cc(C(F)(F)F)c1
120 | CCOC(=O)N1CC(=O)NC(=O)N1Cc1ccc(Cl)cc1
251 | Cc1cc(C(=O)Nc2cccc(Sc3ccc4nc(NC(=O)C5CC5)cn4n3)c2)n(C)n1
57 to 58 | CCN(C)c1cccc(NC(=O)COC(C)=O)c1C#N
223 to 225 | COc1nc(Cl)cnc1NS(=O)(=O)c1ccccc1-c1ccc(OC(C)C(=O)O)cc1 (stereo unspecified)
89 to 92 | CN1CCN(c2ccc(S(=O)(=O)c3cccc(F)c3)c(N)c2)CC1
131 | COc1ccc(-c2cc(=O)n(CCc3ccc(OC)c(OC)c3)nc2-c2ccc(OC)cc2)cc1
139 to 140 | CCOC(=O)Cc1ccc(NC(=O)C(CO)NS(=O)(=O)c2ccc(Cl)cc2)cc1 (racemic)
74 to 83 | CC(C)OC(=O)C1CCCN1S(=O)(=O)c1ccc(N2CCC(NCC(O)COc3cccc4[nH]c(=O)[nH]c34)CC2)cc1 (stereo unspecified)
160 to 163 | COc1nc(NC(=O)NS(=O)(=O)c2cc(Cl)ccc2C(=O)OC(C)C)nc(C(F)(F)F)n1
100 to 101 | CCOC(=O)C1=CCCCC1S(=O)(=O)Nn1cccc1C (stereo unspecified)
145 to 148 | CCOC(=O)N1CCC(c2ccc3oc(-c4ccc(S(C)(=O)=O)cc4F)nc3c2)CC1

melting point [°C] | SMILES
231 to 232 | Cc1ccccc1-c1c(C(=O)O)c(=O)n(C)c2cc3c(cc12)CCC3
137 to 139 | O=c1c(Cl)c(OCc2ccc(F)cc2F)ccn1Cc1ccc2c(c1)CCN2
154 to 155 | CCCCOCCOc1ccc(-c2ccc(N3CCC(C)CC3)c(C=C(C)C(=O)O)c2)cc1
239 to 241 | Cc1ccn2c(C)c(-c3ccc4c(c3)NC(=O)CO4)nc2c1
124 to 125 | CC(C)c1nn(-c2ccc(C(F)(F)F)cn2)cc1CCCOc1nn(C)cc1CCC(=O)O
140 to 141 | CCOc1cc(C(C)C)c2c(c1)S(=O)(=O)N(COC(=O)c1c(Cl)cccc1Cl)C2=O
234 to 236 | COc1ccc2cc(CC(N)=O)ccc2c1
55 to 57 | COC(=O)c1sc(Cl)nc1-c1ccccc1
82 to 84 | CC(=O)n1cc(Cl)c(-c2ccccc2Cl)c1
255 to 256 | COc1cc(O)c2c(=O)cc(C(=O)Nc3ccc(CC4SC(=O)NC4=O)cc3)oc2c1 (stereo unspecified)
137 to 139 | CCOC(=O)c1snc(-c2ccc(F)cc2)c1N
206 to 208 | O=S(=O)(Nc1cccc(Cl)c1)c1cc(S(=O)(=O)Nc2cccc(Cl)c2)c2cc(O)ccc2c1
> 250 | CCc1ccc(Nc2nc3cc(NC(=O)c4ccc(Cl)cc4)ccc3o2)cc1
162 to 164 | CCCCOc1ccc(C(=O)N[C@@H]2CCc3cccc(C4CCN(C)CC4)c3C2)cc1
295 to 300 | CC1=N/C(=C\c2c[nH]c3ncc(Cl)cc23)C(=O)N1C
